Results published in publication PMC3804352 (ACS medicinal chemistry letters, 2013).
“Also recorded” adds a separate entry of the source. Where two headings read alike, the source gives them in different places.

Experiments:
[1] = in mice; cited from earlier work
[2] = in vivo, iv; cited from earlier work
[3] = cited from earlier work
human cancer cells = settings: cited from earlier work
[4] = assay type: in vivo, mice; settings: at the termination of efficacy trials
[5] = Stability in human liver cytosolic fraction; assay type: in vitro ADME; settings: r^2 = 0.24, p = 0.10
Plasmodium yoelii = assay: In vivo efficacy in mice infected with Plasmodium yoelii, parasite load by FACS; design: species or system Swiss webster female mice
[6] = In vivo pharmacokinetic study, single IV or IP injection to healthy mice
mice = assay: Toxicity to mice in efficacy and PK studies; assay type: in vivo; settings: dosing regime of efficacy study (5-10 mg/kg once daily) and PK study
[7] = Metabolism by human liver S9 fraction; assay type: in vitro ADME
[8] = Metabolism by human liver microsomes; assay type: in vitro ADME
[9] = Solubility in aqueous buffers; assay type: physicochemical
[10] = Stability in mouse serum at 37 °C; assay type: in vitro ADME
parasitemia = settings: cited from earlier work
P. falciparum = settings: read-out: in vitro IC50; cited from earlier work

Structure (SMILES): C[C@H]1Cc2c([nH]c3cc(Cl)c(F)cc23)[C@@]2(N1)C(=O)Nc1ccc(Cl)cc12 [NITD609, spirotetrahydro-β-carboline NITD609]
- clearance rate [1]: 9.8 mL/min/kg

Structure (SMILES): C[C@H]1[C@H](OC(=O)CCC(=O)O)O[C@@H]2O[C@@]3(C)CC[C@H]4[C@H](C)CC[C@@H]1[C@@]24OO3 [artesunate]
- half-life [2]: less than 10 min

Structure (SMILES): CCN(CC)CCCC(C)Nc1ccnc2cc(Cl)ccc12 (centres unmarked) [chloroquine]
- apparent volume of distribution [3]: 200 L/kg

Structure (SMILES): CC1=C2Cc3cc(ccc3O)C(=O)O[C@H](C(C)(C)Br)CC[C@](C)(O)[C@H](Br)CC[C@]2(C)[C@@H](Br)CC1 [compound 1, bromophycolide A]
- differential selectivity among eukaryotic cell lines (human cancer cells): 10 fold
- IC50 (human cancer cells; human cancer cells): > 6000 nM
- concentration in blood and plasma of infected mice [4]: below the limit of detection
- stability in the presence of the human liver cytosolic fraction [5]: stable
- parasitemia in treated mice (Plasmodium yoelii; after the second dose, 10 mg/kg): 10.0 ± 0.5%
- final parasitemia (FACS) (Plasmodium yoelii; dosed at 10 mg/kg, control 32 ± 2 %): 17 ± 4%
- bioavailability ([6]; IP vs IV dosing): good bioavailability
- Cp^0 ([6]; IV, 23 mg/kg, plasma): 24000 ± 6000 ng/mL
- toxicity to mice (mice): lack of mouse toxicity; also recorded: non-toxic
- metabolism by human liver sub-cellular fractions ([7]; after 4 h): negligible metabolism
- half-life ([7]; human, human liver S9 fraction): 9.5 ± 0.8 h
- CLint scaled at 24 h, 10 µM ([7]; human, human liver S9 fraction, CLint, S9 fraction with UDPGA): 1.1 ± 0.1 mL/min/kg
- CLint scaled at 24 h, 10 µM ([8]; human, human liver microsomes): 1.6 ± 0.5 mL/min/kg
- stability in the presence of human microsomes ([8]; summary statement): moderately stable
- solubility in aqueous buffers [9]: poor solubility
- loss after incubation in mouse serum ([10]; 37 °C, 24 h (r^2 = 0.20, p=0.27)): no significant loss
- stability in mouse serum ([10]; over 24 h): stable

Structure (SMILES): CC[C@H](C)C(=O)O[C@@H]1[C@H]2C(C)=CC(=O)[C@@H](O)[C@]2(C)[C@H]2[C@@H](O)[C@H](O)[C@@]3(C)OC[C@@]24[C@@H]1OC(=O)[C@H](OC(=O)[C@@H](C)CC)[C@@H]34 [simalikalactone E]
- reduction of parasitemia in vivo (parasitemia; 0.5 mg/kg IP dosing): 50%
- reduction of parasitemia in vivo (parasitemia; 1 mg/kg oral dosing): 50%
- IC50 (P. falciparum): 24 to 68 nM
